Assay results reported in PMC4685510, “A Cell Biologist’s Field Guide to Aurora Kinase Inhibitors” (Frontiers in Oncology, 2015).
Where two headings read alike, the source gives them in different places.

Columns and labels:
Assay in all cases: biochemical
Type in all cases: biochemical
[1] = molecular target: T1, 363 human kinases (including Aurora A/B/C) (Homo sapiens, UniProt Q14164); settings: for remaining activity at 0.1 µM: 100 nM
T1 sequence (Q14164 1-716): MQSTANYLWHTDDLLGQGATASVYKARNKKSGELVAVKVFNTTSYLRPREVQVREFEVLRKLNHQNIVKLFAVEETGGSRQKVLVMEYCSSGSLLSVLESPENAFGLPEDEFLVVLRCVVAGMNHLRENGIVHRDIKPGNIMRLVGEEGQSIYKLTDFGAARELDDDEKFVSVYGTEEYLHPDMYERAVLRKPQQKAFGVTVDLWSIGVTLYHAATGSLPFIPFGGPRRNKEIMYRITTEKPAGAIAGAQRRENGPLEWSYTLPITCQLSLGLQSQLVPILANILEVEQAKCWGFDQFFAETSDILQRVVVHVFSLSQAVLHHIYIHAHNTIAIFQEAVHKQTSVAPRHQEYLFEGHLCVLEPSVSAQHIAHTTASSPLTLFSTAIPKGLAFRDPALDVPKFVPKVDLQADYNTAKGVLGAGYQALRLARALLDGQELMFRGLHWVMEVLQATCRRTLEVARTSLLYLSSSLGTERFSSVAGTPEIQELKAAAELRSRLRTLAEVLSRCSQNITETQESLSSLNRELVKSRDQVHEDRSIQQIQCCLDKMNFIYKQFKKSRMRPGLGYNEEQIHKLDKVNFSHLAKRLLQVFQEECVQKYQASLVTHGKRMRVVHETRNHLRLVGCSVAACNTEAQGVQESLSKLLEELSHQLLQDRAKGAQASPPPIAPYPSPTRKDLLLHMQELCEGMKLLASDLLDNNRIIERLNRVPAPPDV
Excerpt: (§1) However, the Aurora A/B selectivity ratios derived from our in vitro and in vivo data can be compared to prioritize inhibitors.

[2] = molecular target: T2, 363 human kinases (including Aurora A/B/C) (Homo sapiens, UniProt P36897); settings: ALK5/TGFBR1, [ATP] 100 µM; for remaining activity at 0.1 µM: 100 nM; for remaining activity at 0.1 µM / remaining activity at 0.5 µM: read-out: % Enzyme Activity (relative to DMSO controls)
T2 sequence (P36897 34-503): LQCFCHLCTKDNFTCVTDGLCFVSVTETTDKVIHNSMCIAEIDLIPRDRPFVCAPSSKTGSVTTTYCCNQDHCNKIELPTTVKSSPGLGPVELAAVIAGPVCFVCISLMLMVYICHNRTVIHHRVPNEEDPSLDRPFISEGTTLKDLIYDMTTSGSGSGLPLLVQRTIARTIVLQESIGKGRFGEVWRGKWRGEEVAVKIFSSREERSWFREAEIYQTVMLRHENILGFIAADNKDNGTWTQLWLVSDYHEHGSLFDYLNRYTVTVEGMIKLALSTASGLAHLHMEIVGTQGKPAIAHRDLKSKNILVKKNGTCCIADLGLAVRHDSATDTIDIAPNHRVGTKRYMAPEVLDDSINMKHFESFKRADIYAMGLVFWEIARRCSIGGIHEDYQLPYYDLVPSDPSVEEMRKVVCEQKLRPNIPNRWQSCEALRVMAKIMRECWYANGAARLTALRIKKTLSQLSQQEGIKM
Excerpt: as §1

[3] = molecular target: T3, 363 human kinases (including Aurora A/B/C) (Homo sapiens, UniProt Q9H093); settings: SNARK/NUAK2; for remaining activity at 0.1 µM: 100 nM; for remaining activity at 0.1 µM / remaining activity at 0.5 µM: read-out: % Enzyme Activity (relative to DMSO controls)
T3 sequence (Q9H093 1-628): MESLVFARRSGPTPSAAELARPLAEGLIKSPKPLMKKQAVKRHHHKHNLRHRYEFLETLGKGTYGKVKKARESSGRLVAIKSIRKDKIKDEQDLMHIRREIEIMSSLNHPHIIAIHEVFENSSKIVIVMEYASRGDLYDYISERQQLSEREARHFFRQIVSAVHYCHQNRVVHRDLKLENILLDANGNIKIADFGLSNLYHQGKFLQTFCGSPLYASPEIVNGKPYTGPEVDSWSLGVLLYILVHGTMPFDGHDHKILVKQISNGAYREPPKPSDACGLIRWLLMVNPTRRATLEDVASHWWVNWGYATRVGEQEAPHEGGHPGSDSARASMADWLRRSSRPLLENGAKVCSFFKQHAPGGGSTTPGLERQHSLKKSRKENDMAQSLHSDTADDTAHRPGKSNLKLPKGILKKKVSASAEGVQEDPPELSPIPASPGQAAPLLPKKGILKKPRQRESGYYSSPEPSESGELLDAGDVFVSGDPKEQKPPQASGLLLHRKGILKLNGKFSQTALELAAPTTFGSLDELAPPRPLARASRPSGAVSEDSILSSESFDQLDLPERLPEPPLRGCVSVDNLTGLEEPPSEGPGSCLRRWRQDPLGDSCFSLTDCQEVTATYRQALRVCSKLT
Excerpt: as §1

[4] = molecular target: T4, 363 human kinases (including Aurora A/B/C) (Homo sapiens, UniProt P29320); settings: EPHA3, [ATP] 50 µM; for remaining activity at 0.1 µM: 100 nM; for remaining activity at 0.1 µM / remaining activity at 0.5 µM: read-out: % Enzyme Activity (relative to DMSO controls)
T4 sequence (P29320 21-983): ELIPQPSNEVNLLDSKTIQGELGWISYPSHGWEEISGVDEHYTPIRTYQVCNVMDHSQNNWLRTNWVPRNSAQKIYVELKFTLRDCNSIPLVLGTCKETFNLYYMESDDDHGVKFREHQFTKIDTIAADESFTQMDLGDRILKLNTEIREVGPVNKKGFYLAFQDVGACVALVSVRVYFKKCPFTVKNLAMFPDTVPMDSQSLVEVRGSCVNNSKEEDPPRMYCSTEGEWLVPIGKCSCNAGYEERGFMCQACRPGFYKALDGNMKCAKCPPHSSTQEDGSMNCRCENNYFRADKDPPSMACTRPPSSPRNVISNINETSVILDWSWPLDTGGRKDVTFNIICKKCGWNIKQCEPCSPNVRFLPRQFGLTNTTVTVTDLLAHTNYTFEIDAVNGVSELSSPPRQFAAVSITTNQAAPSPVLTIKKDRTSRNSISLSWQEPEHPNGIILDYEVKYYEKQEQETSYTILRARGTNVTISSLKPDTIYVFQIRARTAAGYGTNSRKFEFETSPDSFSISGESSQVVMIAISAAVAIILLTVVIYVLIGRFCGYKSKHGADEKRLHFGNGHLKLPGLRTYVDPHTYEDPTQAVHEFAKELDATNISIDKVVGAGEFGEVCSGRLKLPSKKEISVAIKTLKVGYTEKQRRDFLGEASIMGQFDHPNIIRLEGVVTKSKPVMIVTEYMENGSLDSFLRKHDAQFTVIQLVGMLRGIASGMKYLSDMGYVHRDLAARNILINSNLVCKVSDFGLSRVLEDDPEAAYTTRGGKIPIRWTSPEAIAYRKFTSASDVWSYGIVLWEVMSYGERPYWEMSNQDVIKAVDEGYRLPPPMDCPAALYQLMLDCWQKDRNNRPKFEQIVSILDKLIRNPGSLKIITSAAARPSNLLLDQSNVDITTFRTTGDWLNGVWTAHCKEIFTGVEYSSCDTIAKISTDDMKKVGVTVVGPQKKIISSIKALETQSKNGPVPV
Excerpt: as §1

[5] = IKKe/IKBKE, 500 nM, read-out: % Enzyme Activity (relative to DMSO controls)

O=C(O)[C@]1(Cc2cccc(Nc3nccs3)n2)CC[C@@H](Oc2cccc(Cl)c2F)CC1 [MK-5108]
remaining activity at 0.1 µM ([1]; IKKe/IKBKE, read-out: % Enzyme Activity (relative to DMSO controls)): 98.3% | remaining activity at 0.5 µM [1, 5]: 80.6% | remaining activity at 0.1 µM [2]: 116% | remaining activity at 0.5 µM ([2]; 500 nM): 130% | remaining activity at 0.1 µM [3]: 104% | remaining activity at 0.5 µM ([3]; 500 nM): 70.8% | remaining activity at 0.1 µM [4]: 67.4% | remaining activity at 0.5 µM ([4]; 500 nM): 31.4%

O=C(c1cccc(Cl)c1F)N1CCN(Cc2cccc(Nc3nccs3)n2)CC1 [MK-8745]
% Enzyme Activity (relative to DMSO controls) ([1]; IKKe/IKBKE, 500 nM): 89.47% | remaining activity at 0.5 µM [1, 5]: 92.2% | % Enzyme Activity (relative to DMSO controls) ([2]; 500 nM): 109.55% | remaining activity at 0.5 µM ([2]; 500 nM): 110% | % Enzyme Activity (relative to DMSO controls) ([3]; 500 nM): 85.75% | remaining activity at 0.5 µM ([3]; 500 nM): 88.1% | % Enzyme Activity (relative to DMSO controls) ([4]; 500 nM): 84.89% | remaining activity at 0.5 µM ([4]; 500 nM): 85.5%

CCn1cc(-c2ccnc3[nH]c(-c4cccc(CN(C)C)c4)cc23)c(-c2ccc(NC(=O)N(C)C)cc2)n1 [GSK1070916]
remaining activity at 0.1 µM ([1]; read-out: % Enzyme Activity (relative to DMSO controls), IKKe/IKBKE): 84.4% | remaining activity at 0.1 µM [2]: 106% | remaining activity at 0.1 µM [3]: 88.7% | remaining activity at 0.1 µM [4]: 93.1%
